Results: ChEMBL document CHEMBL1134197, “A series of quinoline analogues as potent inhibitors of C. albicans prolyl tRNA synthetase” (Bioorg Med Chem Lett, 2001)
In brackets after ≈: the same amount, converted by molar mass.

Assays:
[1] = target: T1, Proline--tRNA ligase, cytoplasmic (Candida albicans, UniProt P78600); assay: Aminoacylation activity against Candida albicans prolyl-tRNA synthetase
T1 sequence (P78600 whole entry): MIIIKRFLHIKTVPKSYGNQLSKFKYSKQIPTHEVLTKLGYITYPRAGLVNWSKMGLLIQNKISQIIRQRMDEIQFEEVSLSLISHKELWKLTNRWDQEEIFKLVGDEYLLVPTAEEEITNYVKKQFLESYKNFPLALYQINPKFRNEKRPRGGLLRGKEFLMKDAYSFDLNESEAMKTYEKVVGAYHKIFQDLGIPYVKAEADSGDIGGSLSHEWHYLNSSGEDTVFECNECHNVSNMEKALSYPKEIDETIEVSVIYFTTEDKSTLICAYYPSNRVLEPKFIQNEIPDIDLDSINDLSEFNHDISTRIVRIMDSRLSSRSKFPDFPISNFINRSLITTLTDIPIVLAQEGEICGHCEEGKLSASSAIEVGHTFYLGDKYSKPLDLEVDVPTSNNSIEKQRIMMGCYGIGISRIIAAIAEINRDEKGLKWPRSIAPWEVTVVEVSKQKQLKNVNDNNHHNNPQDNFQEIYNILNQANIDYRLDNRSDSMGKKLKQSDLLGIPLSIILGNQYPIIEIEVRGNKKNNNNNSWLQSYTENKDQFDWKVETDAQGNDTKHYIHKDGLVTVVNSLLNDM

[2] = target: Bifunctional glutamate/proline--tRNA ligase (Homo sapiens, UniProt P07814); assay: Aminoacylation activity against human prolyl-tRNA synthetase
Chain of Bifunctional glutamate/proline--tRNA ligase (P07814 whole entry): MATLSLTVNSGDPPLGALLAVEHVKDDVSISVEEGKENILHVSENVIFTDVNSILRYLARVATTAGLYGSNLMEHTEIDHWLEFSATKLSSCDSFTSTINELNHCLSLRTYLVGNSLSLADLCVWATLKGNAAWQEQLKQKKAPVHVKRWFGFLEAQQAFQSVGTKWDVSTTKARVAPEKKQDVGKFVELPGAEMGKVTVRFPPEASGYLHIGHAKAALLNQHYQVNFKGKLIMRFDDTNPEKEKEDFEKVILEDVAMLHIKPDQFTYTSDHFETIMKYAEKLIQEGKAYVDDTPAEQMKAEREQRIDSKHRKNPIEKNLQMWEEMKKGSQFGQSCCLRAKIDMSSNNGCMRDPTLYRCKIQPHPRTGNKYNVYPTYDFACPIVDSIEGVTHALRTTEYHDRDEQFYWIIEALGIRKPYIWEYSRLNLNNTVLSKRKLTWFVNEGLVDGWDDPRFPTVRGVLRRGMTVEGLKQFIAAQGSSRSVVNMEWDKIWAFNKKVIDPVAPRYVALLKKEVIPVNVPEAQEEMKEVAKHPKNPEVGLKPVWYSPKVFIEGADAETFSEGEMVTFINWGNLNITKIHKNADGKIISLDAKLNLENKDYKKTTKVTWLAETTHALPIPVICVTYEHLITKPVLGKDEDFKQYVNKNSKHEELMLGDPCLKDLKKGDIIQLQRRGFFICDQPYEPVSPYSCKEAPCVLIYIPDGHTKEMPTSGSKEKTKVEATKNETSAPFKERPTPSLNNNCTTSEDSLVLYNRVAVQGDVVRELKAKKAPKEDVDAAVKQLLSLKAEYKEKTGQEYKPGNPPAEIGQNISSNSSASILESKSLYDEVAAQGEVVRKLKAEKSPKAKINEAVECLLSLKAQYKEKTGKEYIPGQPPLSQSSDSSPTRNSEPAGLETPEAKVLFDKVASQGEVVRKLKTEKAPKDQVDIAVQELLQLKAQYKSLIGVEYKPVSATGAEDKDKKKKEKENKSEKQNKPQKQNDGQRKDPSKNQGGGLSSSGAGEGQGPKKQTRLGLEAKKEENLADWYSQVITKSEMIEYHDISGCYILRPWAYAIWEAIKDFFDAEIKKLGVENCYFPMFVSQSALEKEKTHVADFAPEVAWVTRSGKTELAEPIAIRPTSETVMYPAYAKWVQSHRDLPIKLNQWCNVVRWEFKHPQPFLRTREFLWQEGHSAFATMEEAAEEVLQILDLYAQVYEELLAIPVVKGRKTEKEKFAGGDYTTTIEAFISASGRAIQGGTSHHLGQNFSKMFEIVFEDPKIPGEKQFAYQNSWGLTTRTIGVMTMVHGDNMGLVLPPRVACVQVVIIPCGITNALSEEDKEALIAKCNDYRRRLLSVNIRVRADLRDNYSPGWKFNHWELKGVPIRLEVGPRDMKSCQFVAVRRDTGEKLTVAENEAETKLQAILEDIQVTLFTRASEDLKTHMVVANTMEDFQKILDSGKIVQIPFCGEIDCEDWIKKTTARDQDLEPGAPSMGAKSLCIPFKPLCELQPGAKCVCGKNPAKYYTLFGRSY

[3] = Minimum inhibitory concentration (MIC) against Candida albicans (has cellular activity); type: functional
Candida albicans = assay: Compound was evaluated for the minimum inhibitory concentration (MIC) against Candida albicans (no cell activity); type: functional
[4] = Competitive inhibition against Candida albicans prolyl-tRNA synthetase (Ca. ProRS) with respect to ATP
[5] = Non-competitive inhibition against Candida albicans prolyl-tRNA synthetase (Ca. ProRS) with respect to proline

SMILES | IC50 [1] [nM] | IC50 [2] [µM] | further results
COc1ccc(-c2cc(C(=O)O)c3ccccc3n2)cc1 | > 100000 | > 100 | –
O=C(O)c1cc(-c2ccc(Br)cc2)nc2c(C(F)(F)F)cc(Br)cc12 | 220 | 56 | –
O=C(O)c1cc(-c2ccc(Cl)c(Cl)c2)nc2ccccc12 | 19000 | > 100 | –
Cc1cc(Cl)cc2c(COS(N)(=O)=O)cc(-c3ccc(Br)cc3)nc12 | 2400 | – | –
O=C(O)/C=C/c1ccc2nc(-c3ccc(Br)cc3)cc(C(=O)O)c2c1 | 1300 | 80 | –
O=C(O)c1cc(-c2ccc(Br)cc2)nc2c(CO)cc(Cl)cc12 | 1500 | > 100 | –
O=C(O)c1cc(-c2ccc(Br)cc2)nc2ccc(-c3ccc(O)cc3)cc12 | 350 | 35 | –
O=C(O)c1cc(-c2ccco2)nc2ccccc12 | > 100000 | > 100 | –
Cc1cc(C)c2nc(-c3ccc(Br)cc3)cc(C(=O)O)c2c1 | 25000 | > 100 | –
Cc1cc(Cl)cc2nc(-c3ccc(Br)cc3)cc(C(=O)O)c12 | 1500 | > 100 | –
O=C(O)c1cc(-c2ccc(C(F)(F)F)cc2)nc2ccccc12 | > 100000 | > 100 | –
O=C(O)c1cc(-c2ccc(Br)cc2)nc2ccc(S(=O)(=O)O)cc12 | 15000 | > 100 | –
O=C(O)c1cc(-c2ccc(Cl)s2)nc2ccccc12 | 32000 | > 100 | –
Cc1cc(Cl)cc2c(C(=O)OCc3ccc(-c4ccccc4)cc3)cc(-c3ccc(Br)cc3)nc12 | 8800 | > 100 | –
O=C(O)c1cc(-c2ccc3ccccc3c2)nc2ccccc12 | 3600 | > 100 | –
Cc1c(Br)ccc2c(C(=O)O)cc(-c3ccc(Br)cc3)nc12 | 150 | 70 | MIC [3]: 25 µg/mL (≈ 59.4 µM)
Nc1ccc2nc(-c3ccc(Br)cc3)cc(C(=O)O)c2c1 | 3300 | 95 | –
O=C(O)c1cc(-c2ccncc2)nc2ccccc12 | > 100000 | > 100 | –
COC(=O)C(Cc1ccccc1)NC(=O)c1cc(-c2ccc(Br)cc2)nc2c(C)cc(Cl)cc12 (configuration not stated) | 5700 | > 100 | –
O=C(O)c1cc(-c2ccc(Br)cc2)nc2ccccc12 | 500 | > 100 | –
O=C(O)c1cc(-c2ccccc2)nc2ccccc12 [CINCHOPHEN] | > 100000 | > 100 | –

Stronger by IC50 [1], values ahead:

IC50 [1] [nM] | IC50 [2] [µM] | SMILES | further results
70 | > 100 | Cc1cc(Cl)cc2c(C(=O)OCc3ccco3)cc(-c3ccc(Br)cc3)nc12 | –
25 | > 20 | Cc1cc(Cl)c2nc(-c3ccc(Br)cc3)cc(C(=O)O)c2c1 | –
30 | > 100 | Cc1cc(Cl)cc2c(-c3nn[nH]n3)cc(-c3ccc(Br)cc3)nc12 | –
26 | > 20 | O=C(O)c1cc(-c2ccc(Br)cc2)nc2ccc(Cl)cc12 | –
53 | > 100 | O=C(O)c1cc(-c2ccc(Br)cc2)nc2ccc(OC(F)(F)F)cc12 | –
25 | > 20 | O=C(O)c1cc(-c2ccc(Br)cc2)nc2ccc(Br)cc12 | –
20 | > 100 | Cc1cc(Cl)cc2c(C(=O)OCc3ccc(Cl)c(Cl)c3)cc(-c3ccc(Br)cc3)nc12 | –
120 | 60 | Cc1c(F)ccc2c(C(=O)O)cc(-c3ccc(Br)cc3)nc12 | –
5 | > 20 | Cc1cc(Cl)cc2c(C(=O)O)cc(-c3ccc(Br)cc3)nc12 | MIC (Candida albicans): > 100 µg/mL; Ki [4]: 5.1 nM; Ki [5]: 15 nM
19 | > 100 | O=C(O)c1cc(-c2ccc(Br)cc2)nc2ccc(I)cc12 | –
140 | > 100 | O=C(O)c1cc(-c2ccc(Br)cc2)nc2cc(Cl)cc(Cl)c12 | –
